Nine compounds from US6506901B2, “Substituted 2-(S)-hydroxy-3-(piperidin-4-yl-methylamino)-propyl ethers and substituted 2-aryl-2-(R)-hydroxy-1-(piperidin-4-yl-methyl)-ethylamine β-3 adrenergic receptor agonists” (Wyeth, priority 2000, dated 2003) can be followed below.

For the test, the target named is T1, human β3 receptors (Homo sapiens, UniProt P13945).
T1 construct: Full length β3 AR clones (402 amino acids) containing the last 6 amino acids of hβ3—AR; expressed in transfected cells; host or cells: CHO cells
T1 sequence (P13945 whole entry): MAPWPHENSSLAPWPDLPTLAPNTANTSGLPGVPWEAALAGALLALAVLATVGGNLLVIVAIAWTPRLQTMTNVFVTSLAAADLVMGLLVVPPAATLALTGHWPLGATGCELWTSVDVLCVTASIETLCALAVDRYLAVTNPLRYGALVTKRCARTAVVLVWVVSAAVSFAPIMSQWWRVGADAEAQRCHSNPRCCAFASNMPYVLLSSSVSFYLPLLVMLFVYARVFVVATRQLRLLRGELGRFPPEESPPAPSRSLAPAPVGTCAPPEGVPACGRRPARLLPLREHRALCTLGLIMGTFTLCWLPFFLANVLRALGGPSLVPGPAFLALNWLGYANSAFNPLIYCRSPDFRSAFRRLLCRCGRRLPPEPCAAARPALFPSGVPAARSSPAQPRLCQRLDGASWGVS
In words: cAMP response (SPA) in CHO cells expressing cloned human β3 adrenergic receptor. The class given is cell-based. The settings on record: for EC50: CHO cells expressing human β3 receptor, cAMP, 30 min incubation, 10^−9 M to 10^−5 M; for IA(β3): maximal response compared to the maximal response of isoproterenol at 10^−5 M. As for the experimental part: Binding to the receptors was measured in Chinese Hamster ovary (CHO) cells that were transfected with adrenergic receptors.
Cloning of Human β3-AR Genomic DNA: cDNA was constructed by ligating four polymerase chain reaction (PCR) products using the following primers: an ATG-NarI fragment, sense primer 5′-[…]3′ and anti-sense primer 5′ […]3′; a NarI-AccI fragment, 5′ […]3′ as sense and 5′ […]3′ as anti-sense primer; an AccIi-StyI fragment, sense primer 5′ […]3′ and anti-sense primer 5′ […]3′ and a StyI-TAG fragment, with sense primer 5′ […]3′ and anti-sense primer 5′ […]3′. The corresponding primer sequences are described in Mantzoros, C. […] The four fragments are ligated into a pUC 18 plasmid (Gibco-BRL) and sequenced.
CHO cells were grown in 24-well tissue culture plates in Dulbecco's Modified Eagle Media with 10% fetal bovine serum, MEM non-essential amino acids, Penicillin-Streptompycin and Geneticin. […] Isoproterenol (10^−5 M) was used as an internal standard for comparison of activity. Cells were incubated at 37° C. on a rocker for 30 min with the β3 cells and 15 min for β1 and β2 cells. Incubation was stopped with the addition of 0.2N HCl and neutralized with 2.5N NaOH. The plates, containing the cells and neutralized media, were stored at −20 degrees celsius until ready to test for cAMP using the SPA test kit (Amersham).
Data Analysis and Results: Data collected from the SPA test procedure were analyzed as per cent of the maximal isoproterenol response at 10^−5 M. Activity curves were plotted using the SAS statistical and graphics software.

“And” between values parts separate entries of the source, which are not always exact repeats. Equal values may be shown once.

Take `CS(=O)(=O)Nc1cc([C@@H](O)CNCC2CCN(S(=O)(=O)c3ccc(NC(=O)Nc4ccccn4)cc3)CC2)ccc1O` [Example 67, N-{2-Hydroxy-5-[(1R)-1-hydroxy-2-({1-[4-(3-pyridin-2-yl-ureido)-benzenesulfonyl]-piperidin-4-ylmethyl}-amino)-ethyl]-phenyl}-methanesulfonamide]: the EC50 was determined as 0.02 µM and the “IA(β3)” value worked out at 1.2.
Take `O=c1[nH]c2cccc(OC[C@@H](O)CNCC3CCN(S(=O)(=O)c4ccc5ccccc5c4)CC3)c2[nH]1` [Example 157, 4-{[(2S)-2-hydroxy-3-({[1-(2-naphthylsulfonyl)piperidin-4-yl]methyl}amino)propyl]oxy}-1,3-dihydro-2H-benzimidazol-2-one]: the EC50 is 0.67 µM and the “IA(β3)” value stood at 1.
As to `CS(=O)(=O)Nc1cc([C@@H](O)CNCC2CCN(S(=O)(=O)c3ccc(-n4cc(C(=O)O)cn4)cc3)CC2)ccc1O` [Example 101, 1-{4-[(4-{[((2R)-2-Hydroxy-2-{4-hydroxy-3-[(methylsulfonyl)amino]-phenyl}ethyl)amino]methyl}piperidin-1-yl)sulfonyl]phenyl}-1H-pyrazole-4-carboxylic Acid], the EC50 is 0.043 µM and the “IA(β3)” value was found to be 0.93.
In the case of `CS(=O)(=O)Nc1cc([C@@H](O)CNCC2CCN(c3ccc(C(=O)N[C@@H](CC(=O)O)C(=O)O)cc3)CC2)ccc1O` [Example 108, (2S)-2-{[4-(4-{[((2R)-2-Hydroxy-2-{4-hydroxy-3-[(methylsulfonyl)amino]phenyl}-ethyl)amino]methyl}piperidin-1-yl)benzoyl]amino}butanedioic Acid], the EC50 worked out at […] and the “IA(β3)” value stood at […].
For `CC(C)c1ccc(S(=O)(=O)N2CCC(CNC[C@H](O)c3ccc(O)c(NS(C)(=O)=O)c3)CC2)cc1` [Example 124, N-(2-hydroxy-5-{(1R)-1-hydroxy-2-[({1-[(4-isopropylphenyl)-sulfonyl]piperidin-4-yl}methyl)amino]ethyl}phenyl)-methanesulfonamide], the EC50 turned out to be 0.055 µM and the “IA(β3)” value is listed as 1.
For `Cn1cnc(S(=O)(=O)N2CCC(CNC[C@H](O)COc3ccc(O)cc3)CC2)c1` [Example 49, 4-((2S)-2-Hydroxy-3-{[1-(1-methyl-1H-imidazole-4-sulfonyl)-piperidin-4-ylmethyl]-amino}-propoxy)-phenol], in that order: 2.36 µM and 0.4.
As to `O=S(=O)(c1ccc(OC(F)(F)F)cc1)N1CCC(CNC[C@H](O)COc2ccc(O)cc2)CC1` [Example 47, 4-((2S)-2-Hydroxy-3-{[1-(4-trifluoromethoxy-benzenesulfonyl)-piperidin-4-ylmethyl]-amino}-propoxy)-phenol], a half-maximal response (EC50) required 0.25 µM and the “IA(β3)” value came to 0.7.
With `CC(C)(C)c1ccc(S(=O)(=O)N2CCC(CNC[C@H](O)COc3cccc4[nH]c(=O)[nH]c34)CC2)cc1` [Example 162, 4-[((2S)-3-{[(1-{[4-(tert-butyl)phenyl]sulfonyl}piperidin-4-yl)methyl]-amino}-2-hydroxypropyl)oxy]-1,3-dihydro-2H-benzimidazol-2-one], the EC50 is 0.011 µM and 0.035 µM; the “IA(β3)” value was 0.64 and 0.94.
As to `CS(=O)(=O)Nc1cc([C@@H](O)CNCC2CCN(S(=O)(=O)c3ccc(NC(=O)NCCc4cc(F)ccc4F)cc3)CC2)ccc1O` [Example 81, N-{5-[(1R)-2-({[1-({4-[({[2-(2,5-difluorophenyl)ethyl]amino]-carbonyl)amino}-phenyl}sulfonyl)piperidin-4-yl]methyl}amino)-1-hydroxyethyl]-2-hydroxyphenyl}-methanesulfonamide], it took 0.005 µM to reach a half-maximal effect (EC50) and the “IA(β3)” value was 1.1.

A word on the EC50: it is the concentration needed to bring the measured effect to its halfway point.
